# According to patent publication US20250230193A1, “CYCLIC COMPOUND HAVING SELECTIVE KRAS INHIBITORY EFFECT ON HRAS AND NRAS” (CHUGAI SEIYAKU KABUSHIKI KAISHA, priority 2022, published 2025):
# Where a SMILES comes first, the peptide text is derived from it. Bridges are numbered along the chain shown (N, C = ends). [ ]: non-standard residue; d: D form. The star is where a group is joined. hPhe(3-Cl-4-CF3) = N[C@@H](CCc1ccc(C(F)(F)F)c(Cl)c1)C(=O)O; NPrPhe(4-CF3) = CCCN[C@@H](Cc1ccc(C(F)(F)F)cc1)C(=O)O; NEtPhe(4-Me) = CCN[C@@H](Cc1ccc(C)cc1)C(=O)O; NMeGly(cPent) = CN[C@H](C(=O)O)C1CCCC1; NMeF = CN[C@@H](Cc1ccccc1)C(=O)O; NMeD = CN[C@@H](CC(=O)O)C(=O)O; NMeL = CN[C@@H](CC(C)C)C(=O)O; NMeV = CN[C@H](C(=O)O)C(C)C; Morpholide = C1CN(*)CCO1; NMeA = CN[C@@H](C)C(=O)O; Ac5c = NC1(C(=O)O)CCCC1; Aze = O=C(O)[C@@H]1CCN1; Abu = CC[C@H](N)C(=O)O; Ac4c = NC1(C(=O)O)CCC1; NEtG = CCNCC(=O)O; Sar = CNCC(=O)O
# Tests used:
# [1] = target: GDP-bound NRAS wild-type protein (Homo sapiens, UniProt P01111); test: Binding to NRAS by surface plasmon resonance (SPR), Single Cycle Kinetics; details: SPR
# Chain of GDP-bound NRAS wild-type protein (P01111 whole entry): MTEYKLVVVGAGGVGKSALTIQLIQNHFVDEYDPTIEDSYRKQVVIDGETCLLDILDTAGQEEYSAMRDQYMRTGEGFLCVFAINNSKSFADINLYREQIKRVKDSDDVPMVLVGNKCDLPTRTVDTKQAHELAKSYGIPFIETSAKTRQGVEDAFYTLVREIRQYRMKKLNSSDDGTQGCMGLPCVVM
# [2] = target: GDP-bound HRAS wild-type protein (Homo sapiens, UniProt P01112); test: Binding to HRAS by surface plasmon resonance (SPR), Single Cycle Kinetics; details: SPR
# Chain of GDP-bound HRAS wild-type protein (P01112 whole entry): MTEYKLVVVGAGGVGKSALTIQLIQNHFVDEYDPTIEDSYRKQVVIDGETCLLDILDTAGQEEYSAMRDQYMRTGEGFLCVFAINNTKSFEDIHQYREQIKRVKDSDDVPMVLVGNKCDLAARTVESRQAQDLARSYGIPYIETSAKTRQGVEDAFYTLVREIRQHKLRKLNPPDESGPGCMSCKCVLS
SMILES,NRAS/KRAS (ratio of KD for GDP-bound NRAS wild-type to KD for KRAS) ([1]; KD ratio NRAS/KRAS),HRAS/KRAS (ratio of KD for GDP-bound HRAS wild-type to KD for KRAS) ([2]; KD ratio HRAS/KRAS),further results
CC[C@H](C)[C@@H]1NC(=O)[C@H](CC(C)C)N(C)C(=O)C[C@@H](C(=O)N2CCOCC2)N(C)C(=O)[C@H](C2CCCC2)N(C)C(=O)C2(CCCC2)NC(=O)[C@@H]2CCCN2C(=O)[C@H](CCc2ccc(C(F)(F)F)c(Cl)c2)NC(=O)CN(C)C(=O)[C@H](Cc2ccccc2)N(C)C(=O)[C@@H]2CCN2C(=O)[C@H](C)N(C)C1=O [PP0011] ([NMeL]I[NMeA][Aze][NMeF][Sar][hPhe(3-Cl-4-CF3)]P[Ac5c][NMeGly(cPent)][NMeD]-Morpholide; lactam N-11),C (A compound having a KD ratio of 0.1 or more and less than 3 is denoted as C),C (A compound having a KD ratio of 0.1 or more and less than 3 is denoted as C),–
CCCN1C(=O)[C@@H]2CCN2C(=O)CN(C)C(=O)[C@H]([C@@H](C)CC)NC(=O)[C@H](CC(C)C)N(C)C(=O)C[C@@H](C(=O)N(C)C)NC(=O)[C@H](C2CCCC2)N(C)C(=O)C2(CCC2)NC(=O)[C@@H]2CCCN2C(=O)[C@H](CCc2ccc(C(F)(F)F)c(Cl)c2)NC(=O)CN(C)C(=O)[C@@H]1Cc1ccc(C(F)(F)F)cc1 [PP0386] ([NMeL]I[Sar][Aze][NPrPhe(4-CF3)][Sar][hPhe(3-Cl-4-CF3)]P[Ac4c][NMeGly(cPent)]D-NMe2; lactam N-11),C (A compound having a KD ratio of 0.1 or more and less than 3 is denoted as C),B (a compound having 3 or more and less than 10 is denoted as B),–
CCCN1C(=O)CN(C)C(=O)CN(CC)C(=O)[C@H]([C@@H](C)CC)NC(=O)[C@H](CC(C)C)N(C)C(=O)C[C@@H](C(=O)N(C)C)NC(=O)[C@H](C2CCCC2)N(C)C(=O)C2(CCCC2)NC(=O)[C@@H]2CCCN2C(=O)[C@H](CCc2ccc(C(F)(F)F)c(Cl)c2)NC(=O)CN(C)C(=O)[C@@H]1Cc1ccc(C(F)(F)F)cc1 [PP0367] ([NMeL]I[NEtG][Sar][NPrPhe(4-CF3)][Sar][hPhe(3-Cl-4-CF3)]P[Ac5c][NMeGly(cPent)]D-NMe2; lactam N-11),B (a compound having 3 or more and less than 10 is denoted as B),B (a compound having 3 or more and less than 10 is denoted as B),–
CCO[C@@H]1C[C@H]2C(=O)NC3(CC(C)(C)C3)C(=O)N(C)[C@@H](C(CC)CC)C(=O)N(C)[C@H](C(=O)N3CCCC3)CC(=O)N(C)[C@@H](COC)C(=O)N[C@@H]([C@@H](C)CC)C(=O)N(C)CC(=O)N(C)[C@H]3C/C=C\CCN(C3=O)[C@@H](Cc3ccc(C(F)(F)F)cc3)C(=O)N(C)CC(=O)N[C@@H](CCc3ccc(Cl)c(Cl)c3)C(=O)N2C1 [PP2174],–,–,NRAS/KRAS (ratio of KD value with respect to NRAS to KD value with respect to KRAS) ([1]; GDP-bound NRAS wild-type vs GDP-bound KRAS wild-type): AA (a compound having 20 or more is denoted as AA); HRAS/KRAS (ratio of KD value with respect to HRAS to KD value with respect to KRAS) ([2]; GDP-bound HRAS wild-type vs GDP-bound KRAS wild-type): A (a compound having 10 or more and less than 20 is denoted as A)
CC[C@H](C)[C@@H]1NC(=O)[C@H](CC(C)C)N(C)C(=O)C[C@@H](C(=O)N2CCOCC2)N(C)C(=O)[C@H](C(C)C)N(C)C(=O)C2(CCCC2)NC(=O)[C@@H]2CCCN2C(=O)[C@H](CCc2ccc(C(F)(F)F)c(Cl)c2)NC(=O)CN(C)C(=O)[C@H](Cc2ccc(C)cc2)N(CC)C(=O)CN(C)C(=O)CN(C)C1=O [PP0044] ([NMeL]I[Sar][Sar][NEtPhe(4-Me)][Sar][hPhe(3-Cl-4-CF3)]P[Ac5c][NMeV][NMeD]-Morpholide; lactam N-11),C (A compound having a KD ratio of 0.1 or more and less than 3 is denoted as C),C (A compound having a KD ratio of 0.1 or more and less than 3 is denoted as C),–
CCC[C@H]1C(=O)N[C@@H](C2CCCCC2)C(=O)N(C)CC(=O)N(C)[C@H]2C/C=C\CCN(C2=O)[C@@H](Cc2ccc(C)cc2)C(=O)N(C)CC(=O)N[C@@H](CCc2ccc(C(F)(F)F)c(Cl)c2)C(=O)N2C[C@H](OCC)C[C@H]2C(=O)NC2(CC(C)(C)C2)C(=O)N(C)[C@@H](C2CCCC2)C(=O)N(C)[C@H](C(=O)N(C)C)CC(=O)N1C [PP2998],–,–,"NRAS/KRAS (ratio of KD value with respect to GDP-bound NRAS wild-type protein to KD value with respect to KRAS) ([1]; KD ratio NRAS/KRAS, GDP-bound wild-type proteins): A (a compound having 10 or more and less than 20 is denoted as A); HRAS/KRAS (ratio of KD value with respect to GDP-bound HRAS wild-type protein to KD value with respect to KRAS) ([2]; KD ratio HRAS/KRAS, GDP-bound wild-type proteins): AA (a compound having 20 or more is denoted as AA)"
CCCN1C(=O)CN(C)C(=O)[C@@H]2CCN2C(=O)[C@H](CC)NC(=O)[C@H](CC(C)C)N(C)C(=O)C[C@@H](C(=O)N2CCOCC2)N(C)C(=O)[C@H](C2CCCC2)N(C)C(=O)C2(CCCC2)NC(=O)[C@@H]2CCCN2C(=O)[C@H](CCc2ccc(C(F)(F)F)c(Cl)c2)NC(=O)CN(C)C(=O)[C@@H]1Cc1ccc(C(F)(F)F)cc1 [PP0303] ([NMeL][Abu][Aze][Sar][NPrPhe(4-CF3)][Sar][hPhe(3-Cl-4-CF3)]P[Ac5c][NMeGly(cPent)][NMeD]-Morpholide; lactam N-11),B (a compound having 3 or more and less than 10 is denoted as B),B (a compound having 3 or more and less than 10 is denoted as B),–
